Columns and labels:
EPHA7 [1] = experiment: RNA interference assay: EPHA7 expression by semiquantitative RT-PCR; format: cell-based, human; details: NCI-H520 and SBC-5 cells; versus control siRNAs (LUC, SCR)
Method: (§1) Total RNA was extracted from cultured cells using Trizol reagent (Life Technologies, Inc. Gaithersburg, Md.) according to the manufacturer's protocol. Extracted RNAs were treated with DNase I (Nippon Gene, Tokyo, Japan) and reversely-transcribed using oligo (dT) primer and SuperScript II. The primer sets for amplification were as follows:
(§2) Small interfering RNA (siRNA) duplexes (Dharmacon, Inc., Lafayette, Colo.) (600 pM) were transfected into lung-cancer cell lines LC319 and A549 for CDCA5; NCI-H520 and SBC-5 for EPHA7; LC319 for WDHD1, and esophageal cancer cell line TE9 for WDHD1 using 30 μl of Lipofectamine 2000 (Invitrogen, Carlsbad, Calif.) following the manufacturer's protocol. The transfected cells were cultured for 7 days, and the number of colonies was counted by Giemsa staining, and viability of cells was evaluated by 3-(4,5-dimethylthiazol-2-yl)-2,5-diphenyltetrazolium bromide (MTT) assay (cell counting kit-8 solution; Dojindo Laboratories, Kumanoto, Japan), at 7 days after transfection. To confirm suppression of gene expression, semiquantitative RT-PCR was carried out with synthesized primers described above.

NCI-H520 cells = experiment: RNA interference assay (oligo based): colony formation and MTT assays; format: cell-based, human; details: 7 days after transfection
Method: as §2

SBC-5 cells = experiment: as above; format: cell-based, human; details: 7 days after transfection
Method: as §2

WDHD1 = experiment: RNA interference assay: WDHD1 knockdown by RT-PCR; format: cell-based, human; details: A549, LC319 and TE9 cells
Method: as §1, §2

CDCA5 [2] = experiment: RNA interference assay: CDCA5 expression by semiquantitative RT-PCR; format: cell-based, human; details: A549 and LC319 cells; compared with control siRNA (si-LUC and si-CNT)
Method: as §1, §2

STK31 = experiment: RNA interference assay (vector based): STK31 knockdown by RT-PCR; format: cell-based, human; details: LC319 cells; controls si-EGFP and si-LUC
Method: as §1
(§3) The present inventors had established previously a vector-based RNAi system, psiH1BX3.0, which was designed to synthesize small interfering RNAs (siRNA) in mammalian cells (Suzuki C, et al., Cancer Res. 2003 Nov. 1; 63(21): 7038-41). Ten micrograms of siRNA expression vector were transfected using 30 μL Lipofectamine 2000 (Invitrogen) into lung cancer cell lines, LC319 and NCI-H2170. The transfected cells were cultured for 7 days in the presence of appropriate concentrations of geneticin (G418), and the number of colonies was counted by Giemsa staining, and viability of cells was evaluated by 3-(4,5-dimethylthiazol-2-yl)-2,5-diphenyltetrazolium bromide (MTT) assay (cell counting kit-8 solution; Dojindo, Kumamoto, Japan), at 7 days after the G418 treatment. To confirm suppression of STK31 protein expression, Western blotting was carried out with affinity-purified polyclonal antibody to STK31 according to the standard protocol. The target sequences of the synthetic oligonucleotides for RNAi were as follows: […]

LC319 cells = experiment: RNA interference assay (vector based): colony formation and MTT assays; format: cell-based, human; details: P<0.001; 7 days with G418
Method: as §3

EPHA7 [3] = target: T1, EPHA7 (Homo sapiens, UniProt Q15375); experiment: In vitro EPHA7 kinase assay: EPHA7 autophosphorylation; format: biochemical; details: at the minimum concentration inhibiting EGFR or MET autophosphorylation (assay used 1 mM AG1478, 12.5 μM SU11274)
T1 construct: in vitro kinase assay using active recombinant proteins of cytoplasmic EPHA7, MET, EGFR; purchased Carnabioscience, Kobe, Japan
T1 sequence (Q15375 577-998 limits assumed): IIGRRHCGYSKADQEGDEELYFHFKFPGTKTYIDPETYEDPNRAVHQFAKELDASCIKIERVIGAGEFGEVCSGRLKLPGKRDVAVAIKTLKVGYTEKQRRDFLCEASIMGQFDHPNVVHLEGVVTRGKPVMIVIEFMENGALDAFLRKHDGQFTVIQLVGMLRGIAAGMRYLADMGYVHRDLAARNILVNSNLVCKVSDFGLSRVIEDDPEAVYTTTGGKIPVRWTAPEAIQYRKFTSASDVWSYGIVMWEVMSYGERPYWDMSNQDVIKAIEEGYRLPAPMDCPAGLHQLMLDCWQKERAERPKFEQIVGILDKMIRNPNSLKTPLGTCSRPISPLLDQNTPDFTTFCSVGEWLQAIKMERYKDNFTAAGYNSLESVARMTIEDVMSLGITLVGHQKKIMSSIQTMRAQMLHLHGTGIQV
Method: Active recombinant EPHA7 (Carnabioscience, Kobe, Japan), EGFR (Millipore, Billerica, Mass.), MET (Millipore), EGFR inhibitor AG1478 (EMD), and MET inhibitor SU11274 were commercially purchased. We constructed plasmids expressing partial fragments of EGFR (#1: codons 692-891, #2: codons 889-1045, #3: codons 1046-1186) that contained GST-tagged epitopes at their N-terminals were prepared using pGEX vector (GE Healthcare Bio-sciences). The recombinant peptides were expressed in Escherichia coli, BL21 codon-plus strain (Stratagene, La Jolla, Calif.), and purified using TALON resin (BD Biosciences Clontech) according to the supplier's protocol. The purified proteins were extracted on an SDS-PAGE gel. […] ATP (GE Healthcare Bio-sciences). After incubation at 30 degrees C. for 30 minutes the reactions were terminated by addition of SDS sample buffer. After boiling, the protein samples were electrophoresed on 5% to 15% gradient gel (Bio-Rad), and then signals were visualized by Molecular imager FX (Bio-Rad). In EPHA7 kinase assay using MET as substrate, we adopted the same protocol as above mentioned EPHA7-EGFR kinase reaction, using 50 ng of MET and 12.5 μM of SU11274 (MET inhibitor; see above), instead of EGFR and AG1478. […] ATP, and detected phosphorylated proteins using anti-pan phospho-tyrosine antibody (Invitrogen).

CDCA5 [4] = experiment: CDC2-dependent phosphorylation of CDCA5 in mitosis, western blotting; format: cell-based
Method: To determine whether endogenous CDCA5 phosphorylation in mitosis was CDC2-dependent, we further treated the lung cancer cells at 5 hours after release from G1/S phase with nocodazole alone or both nocodazole and CDC2 inhibitor CGP74514A, and measured the status of CDCA5 phosphorylation by western blotting. Mitotic cells treated with nocodazole alone gradually expressed phosphorylated CDCA5 (shifted bands) (FIG. 19B).

CDCA5 [5] = system: CDCA5
Method: (§4) Cultured A549 and LC319 lung cancer cells as well as cervical squamous cell carcinoma Hela cells were synchronized in G1/S phase by 2 μg/ml aphidilcoline for 16 hours incubation. For mitosis synchronization, the cells were released at 0 hour from G1/S phase. Nocodazole was added at 5 hours to prevent mitotic exit. At the point, CDC2 inhibitors or PBS were added to the cell cultures. For the EGF stimulation assay, Hela cells were cultured in FBS free medium for 20 hours. Then, the cells were stimulated by […] EGF for 30 min with or without 10 μM MEK inhibitor U0126 (Promega)

ERK = details: serum-starved Hela cells, EGF stimulation with 10 μM U0126
Method: as §4

NSCLC = details: cited from earlier work

With 5′-AAAAGAGAUGUUGCAGUA-3′ [si-EPHA7-#1] the “EPHA7 mRNA levels / EPHA7 expression” value (EPHA7 [1]) was “weak reduction of EPHA7 expression”, the “number of colonies and viable cells (MTT), NCI-H520 cells, siRNA against EPHA7” value (NCI-H520 cells) was “slight decreases in colony numbers and cell viability” and the “number of colonies and viable cells (MTT), SBC-5 cells, siRNA against EPHA7” value (SBC-5 cells) was “slight decreases in colony numbers and cell viability”.

For “5′-GAUCAGACAUGUGCUAUUA UU-3′ (GAUCAGACAUGUGCUAUUAUU; listed as RNA, chemistry not given here) [si-WDHD1-#1]”, the “WDHD1 knockdown effect (RT-PCR)” value (WDHD1) was “knockdown effect was confirmed”.

For “5′-GCAGUUUGAUCUCCUGGUUU-3′ [si-CDCA5-#1]”, the “expression of CDCA5” value (CDCA5 [2]) was “significantly suppressed expression of CDCA5”.

In the case of “5′-GCCAGAGACUUGGAAAUGU UU-3′ [si-CDCA5-#2]”, the “expression of CDCA5” value (CDCA5 [2]) is reported as “significantly suppressed expression of CDCA5”.

For 5′-GGAGATAGCTCTGGTTGAT-3′ [si-STK31-#1], the “STK31 knockdown effect (RT-PCR)” value (STK31) was “knockdown effect was confirmed” and the “number of LC319 cells (MTT and colony-formation assays), siRNA against STK31” value (LC319 cells) was “drastic reduction in the number of cells”.

In the case of 5′-GGGCTATTCTGTGGATGTT-3′ [si-STK31-#2], the “STK31 knockdown effect (RT-PCR)” value (STK31) is reported as “knockdown effect was confirmed” and the “number of LC319 cells (MTT and colony-formation assays), siRNA against STK31” value (LC319 cells) is reported as “drastic reduction in the number of cells”.

In the case of 5′-UAGCAAAGCUGACCAAGAA-3′ [si-EPHA7-#2], the “EPHA7 mRNA levels / EPHA7 expression” value (EPHA7 [1]) is reported as “significantly decreased”, the “number of colonies and viable cells (MTT), NCI-H520 cells, siRNA against EPHA7” value (NCI-H520 cells) is reported as “significant decreases in the number of colonies formed and in the numbers of viable cells” and the “number of colonies and viable cells (MTT), SBC-5 cells, siRNA against EPHA7” value (SBC-5 cells) is reported as “significant decreases in the number of colonies formed and in the numbers of viable cells”.

With COc1cc2ncnc(Nc3cccc(Cl)c3)c2cc1OC [AG1478] the EPHA7 autophosphorylation (EPHA7 [3]) was “did not inhibit EPHA7 autophosphorylation”.

For CCn1cnc2c(Nc3cccc(Cl)c3)nc(N[C@@H]3CCCC[C@@H]3N)nc21 [CGP74514A], the “CDCA5 phosphorylation in mitosis (upper shifted bands)” value (CDCA5 [4]; added with nocodazole 5 hours after release from G1/S phase) was “showed no upper shifted bands indicating that CDCA5 phosphorylation in mitosis was significantly inhibited” and the “stability of CDCA5 protein” value (CDCA5 [4]; cells treated with CDC2 inhibitor (FIG. 19C)) was “seems to be unstable”.

For Cc1[nH]c(/C=C2\C(=O)Nc3ccc(S(=O)(=O)N(C)c4cccc(Cl)c4)cc32)c(C)c1C(=O)N1CCN(C)CC1 [SU11274], the EPHA7 autophosphorylation (EPHA7 [3]) was “did not inhibit EPHA7 autophosphorylation”.

With N#CC(=C(/N)Sc1ccccc1N)/C(C#N)=C(\N)Sc1ccccc1N [U0126] the “signal of spot no. 2 of myc-tagged CDCA5, 2D-western-blotting” value (CDCA5 [5]; Hela cells, EGF, U0126 treatment) was “reduced”, the “shifted spots with more acidic pI (spots no. 3 and 4) of myc-tagged CDCA5, 2D-western-blotting” value (CDCA5 [5]; Hela cells, EGF, pre-incubation with U0126) was “significantly reduced” and the “upper shift of CDCA5 band (endogenous CDCA5 phosphorylation)” value (CDCA5 [5]; serum-starved Hela cells, EGF stimulation with 10 μM U0126) was “completely inhibited the upper shift of CDCA5 band”. The “levels of ERK phosphorylation” value (ERK) was “reduced the levels of ERK phosphorylation”.

For O=C1Cc2c([nH]c3ccc([N+](=O)[O-])cc23)-c2ccccc2N1 [alsterpaullone], the “CDC2-inhibitory activity relative to CGP74514A” value (CDCA5 [4]) was “lower compared with the other CDC2 inhibitor CGP74514A” and the “CDCA5 phosphorylation in mitosis” value (CDCA5 [4]; 4 μM, with nocodazole 5 hours after release from G1/S phase) was “could strictly inhibit CDCA5 phosphorylation”.

In the case of C#Cc1cccc(Nc2ncnc3cc(OCCOC)c(OCCOC)cc23)c1 [erlotinib], the median survival (NSCLC; NSCLC patients, placebo 4.7 months (Shepherd et al. 2005)) is listed as 6.7 months.

For COc1cc2ncnc(Nc3ccc(F)c(Cl)c3)c2cc1OCCCN1CCOCC1 [gefitinib], the clinical outcome (NSCLC; NSCLC (Giaccone 2004; Baselga 2004)) is listed as “superior response rate and symptom control”.
